# Test results taken from patent US20030013658A1, “Small peptides and methods for treatment of asthma and inflammation” (Hisatek, LLC, priority 1997, published 2003).
# Where no end group is shown, it is not given here. The star is where a group is joined. For = O=C*
# Tested on: induced type II collagen arthritis
# Assay: Induced type II collagen arthritis mouse model
# Type: in vivo
# Conditions: HK-X TC or footpad, 0.4 or 4 mg/kg for 20 days; method written in present tense
# Description: A mouse model is used to evaluate the effect of the compounds of the present invention on the histological, radiographic and clinical appearance of induced type II collagen arthritis. Mice: DBA/1(2) male mice weighing 25 gms (Jackson Laboratories, Bar Harbor, Me. or B&K Universal, Kent Wash.) are used for this work. This strain of mouse is susceptible to CIA by the injection of heterologous type II collagen. Bovine Collagen (BC), Complete Freund's Adjuvant (CFA) and Incomplete Freund's Adjuvant (ICFA) can be obtained from Sigma Chemical. Antigen for immunization is processed in 0.1 M acetic acid and formulated with CFA or ICFA. […] The degree of cellularity and areas of inflammation are quantified by using digitization of histological photomicrographs and applying standard area and point counting techniques as described above. […] The average area of soft tissue (pannus) of the joint is determined by analysis of computer digitized radiographs, along with changes in density of the adjacent hard tissues by comparison with internal standards included with each radiograph. […] The significance of the differences in density and area for control and experimental mice is assessed using paired T-tests at each time point. […] Swelling of hind paws is also quantitated by measuring the thickness of the ankle from the medial to the lateral malledus with a constant tension caliper. […]
substance,measurement,value
f-Met-Leu-Phe-Phe (For-MLFF) [Example 9],degree of arthritis,found to reduce the degree of arthritis
